Reference: US8969410B1, “Pharmaceutical composition for alleviating or treating gout and uses thereof” (Industrial Technology Research Institute, priority 2013, dated 2015)

What was measured:
Type in all cases: in vivo
interleukin-6 (mIL-6) = experiment: Mouse air pouch model of MSU-induced gout: IL-6 in exudate by ELISA; conditions: Example 4, FIG. 4; topical paste 100 mg/mouse (5 mg actives total) 15 h prior to MSU; exudate 5 h after MSU
From the text: (§1) Mouse Air pouch model: this mouse model may be referenced to the methods and the experimental details as in the published article “Role of S100A8 and S100A9 in neutrophil recruitment in response to monosodium urate monohydrate crystals in the air-pouch model of acute gouty arthritis”, Arthritis Rheum 2003 August, 48(8):2310-20. The full content of such document as a whole is incorporated by reference herein and made a part of this specification.
(§2) Before the experiment, the mice are shaved to remove back hair. At day 0 sterile filtered air (2 ml/per mouse) is injected through 0.22 μm microfilter to the back of each mouse subcutaneously, so that a pseudosynovial cavity is formed in each mouse. At day 3, an air booster (3 ml/mouse) is again given to each mouse, so that the air pouch is maintained round. Later, the mice are weighed and grouped so that the average weight of the mice in each group is about the same. At day 6 monosodium urate (MSU) crystal suspension (5 mg in 2 ml/per mouse) is injected into the air pouch. Topical application of the paste (100 mg paste/per mouse) is administrated 15 hours prior to MSU stimulation. At a specific time (5 hours) after the injection of MSU, the mice were euthanized with an excess of carbon dioxide, 2 ml PBS per mouse is injected into the air pouch, and the air pouch is carefully cut to collect the exudate. […]

[1] = tested on: neutrophil cell (CD45+/Ly6G+ cells); experiment: Mouse air pouch model of MSU-induced gout: neutrophil cell density in exudate by flow cytometry; conditions: for AVERAGE VALUES (neutrophil cell density): Example 4, Table 3, topical paste 100 mg/mouse (5 mg actives total) 15 h prior to MSU, exudate 5 h after MSU; for INHIBITION RATE (neutrophils): Example 4, Table 3, vs blank control, topical paste 100 mg/mouse (5 mg actives total)
From the text: as §1
(§3) Before the experiment, the mice are shaved to remove back hair. At day 0 sterile filtered air (2 ml/per mouse) is injected through 0.22 μm microfilter to the back of each mouse subcutaneously, so that a pseudosynovial cavity is formed in each mouse. At day 3, an air booster (3 ml/mouse) is again given to each mouse, so that the air pouch is maintained round. Later, the mice are weighed and grouped so that the average weight of the mice in each group is about the same. At day 6 monosodium urate (MSU) crystal suspension (5 mg in 2 ml/per mouse) is injected into the air pouch. Topical application of the paste (100 mg paste/per mouse) is administrated 15 hours prior to MSU stimulation. At a specific time (5 hours) after the injection of MSU, the mice were euthanized with an excess of carbon dioxide, 2 ml PBS per mouse is injected into the air pouch, and the air pouch is carefully cut to collect the exudate. The collected exudate is subjected to the centrifugation at 1,000 rpm, 4° C. for 5 minutes, and the supernatant is then placed in a 96-well plate and stored at −20° C. An ELISA kit (purchased from R&D Systems) is used to analyze the contents of IL-1β and IL-6 in the exudate. The precipitate is resuspended and reacted with 1 ml red blood cell lysis buffer (RBC lysis buffer) for one minute to remove the red blood cells, followed by adding 1 ml PBS to terminate the reaction, centrifuged at 1,000 rpm, 25° C. for 5 minutes, and the supernatant is discarded. The precipitate is then resuspended in 1 ml PBS as the cell suspension and the cell suspension is filtered by filter membrane (BD Falcon 100 μm Nylon filter strainer) and the filtered cell suspension is dispensed into several tubes (0.25 ml/tube) for subsequent cell counting or for labelling with various differentiation antigen markers (such as cluster of differentiation (CD) markers). The flow cytometry is used for cell counting of the various cells.
(§4) In order to investigate the anti-gout efficacy of AG02-RA1 and AG04-RA1, either used alone or in combination, the experiments are performed to test AG02-RA1 alone, AG04-RA1 alone and the combination (s) of AG02-RA1:AG04-RA1 in the ratio of 50:50 (Composition Nos. 1, 2 and 3 as shown in Table 1). […]

interleukin-1β (mIL-1β) = experiment: Mouse air pouch model of MSU-induced gout: IL-1β in exudate by ELISA; conditions: Example 4, FIG. 3; topical paste 100 mg/mouse (5 mg actives total) 15 h prior to MSU; exudate 5 h after MSU
From the text: as §1, §2

[2] = tested on: leukocyte cell (CD45+ cells); experiment: Mouse air pouch model of MSU-induced gout: leukocyte cell density in exudate by flow cytometry; conditions: for AVERAGE VALUES (normalized leukocyte cell density): Example 4, Table 2, topical paste 100 mg/mouse (5 mg actives total) 15 h prior to MSU, exudate 5 h after MSU; for INHIBITION RATE (leukocytes): Example 4, Table 2, vs blank control, topical paste 100 mg/mouse (5 mg actives total) 15 h prior to MSU
From the text: as §1, §3, §4

Structure (SMILES)	inhibition rate of interleukin-6 secretion amount (interleukin-6 (mIL-6)) [%]	AVERAGE VALUES (neutrophil cell density) [1] [cells*10^3/ml]	INHIBITION RATE (neutrophils) [1] [%]	inhibition rate of interleukin-1β secretion amount (interleukin-1β (mIL-1β)) [%]	AVERAGE VALUES (normalized leukocyte cell density) [2] [cells*10^3/ml]	INHIBITION RATE (leukocytes) [2] [%]
CC(=O)OCC=Cc1ccc(OC(C)=O)cc1 [AG04-RA1, 4-(3-acetoxy-propenyl)-phenyl acetate]	> 50	205	43	> 50	670	17
C=C1C(=O)OC2/C=C(\C)CC3C=C(CC/C=C(\C)CCC12)C(=O)O3 (stereo not shown) [AG02-RA1, 3,7,11,15(17)-cembratetraene-16,2:19,6-diolide-3484-37-5(3E,12E)-3,12-dimethyl-8-methylene-6,18-dioxa-tricyclo[14.2.1.0.5,9]nonadeca-3,12,16(19)-triene-7,17-dione]		133	63		1609	−100
